Earlier results on two compounds are cited in patent US9993560B2, “Rifaximin complexes” (Cipla Limited, priority 2008, dated 2018).

Each structure is given as a SMILES string.

For `CO[C@H]1/C=C/O[C@@]2(C)Oc3c(C)c(O)c4c(O)c(c5c(nc6cc(C)ccn65)c4c3C2=O)NC(=O)/C(C)=C\C=C\[C@H](C)[C@H](O)[C@@H](C)[C@@H](O)[C@@H](C)[C@H](OC(C)=O)[C@@H]1C` [β-form of rifaximin], the “solubility compared with other known forms of rifaximin” value is on record as “least soluble known form of rifaximin”.
In the case of `CO[C@H]1/C=C/O[C@@]2(C)Oc3c(C)c(O)c4c(O)c(c5c(nc6cc(C)ccn65)c4c3C2=O)NC(=O)/C(C)=C\C=C\[C@H](C)[C@H](O)[C@@H](C)[C@@H](O)[C@@H](C)[C@H](OC(C)=O)[C@@H]1C` [rifaximin, (2S, 16Z, 18E, 20S, 21S, 22R, 23R, 24R, 25S, 26S, 27S, 28E)-5,6,21,23,25-pentahydroxy-27-methoxy-2,4,11,16,20,22,24,26-octamethyl-2,7-(epoxypentadeca-[1,11,13]-trienimino)benzofuro-[4,5-e]-pyrido-[1,2-a]-benzimidazole-1,15-(2H)-dione, 25-acetate], where the note is “water”, the solubility in water result is recorded as “sparingly soluble”.
